# Patent US20070167427A1, “1,2,4-Triazolo[4,3-a]pyridines useful in the treatment of gastrointestinal disorders” (Altana Pharma AG, priority 2004, published 2007)
# Key:
# [1] = tested on: pentagastrin-stimulated acid secretion of the perfused rat stomach; assay: Secretion-inhibiting action on the perfused rat stomach (pentagastrin-stimulated acid secretion, intraduodenal administration in vivo); conditions: anesthetized female CD rat, dose 1.0 μmol/kg i.d.
# Excerpt: Testing of the Secretion-inhibiting Action on the Perfused Rat Stomach
# In Table A which follows, the influence of the compounds according to the invention on the pentagastrin-stimulated acid secretion of the perfused rat stomach after intraduodenal administration in vivo is shown.
# The abdomen of anesthetized rats (CD rat, female, 200-250 g; 1.5 g/kg i.m. urethane) was opened after tracheotomy by a median upper abdominal incision and a PVC catheter was fixed transorally in the esophagus and another via the pylorus such that the ends of the tubes just projected into the gastric lumen. The catheter leading from the pylorus led outward into the right abdominal wall through a side opening.
# After thorough rinsing (about 50-100 ml), warm (37° C.) physiological NaCl solution was continuously passed through the stomach (0.5 ml/min, pH 6.8-6.9; Braun-Unita I). The pH (pH meter 632, glass electrode EA 147; φ=5 mm, Metrohm) and, by titration with a freshly prepared 0.01N NaOH solution to pH 7 (Dosimat 665 Metrohm), the secreted HCl were determined in the effluent in each case collected at an interval of 15 minutes.
# The gastric secretion was stimulated by continuous infusion of […] (=1.65 ml/h) of i.v. pentagastrin (left femoral vein) about 30 min after the end of the operation (i.e. after determination of 2 preliminary fractions). […]
melting point,SMILES,Inhibition of acid secretion [1]
214.4 °C,"CCc1cccc(C)c1CNc1cc(C(=O)OC)cn2c(C)nnc12 [Example 1, 8-(2-Ethyl-6-methyl-benzylamino)-3-methyl[1,2,4]triazolo[4,3-a]pyridine-6-carboxylic acid methyl ester]",
328.1 °C,"CCc1cccc(C)c1CNc1cc(C(=O)O)cn2c(C)nnc12 [Example 2, 8-(2-Ethyl-6-methyl-benzylamino)-3-methyl[1,2,4]triazolo[4,3-a]pyridine-6-carboxylic acid]",
201.3 °C,"CCc1cccc(C)c1CNc1cc(C(=O)N(C)C)cn2c(C)nnc12 [Example 3, 8-(2-Ethyl-6-methylbenzylamino)-N,N,3-trimethyl[1,2,4]triazolo[4,3-a]pyridine-6-carboxamide]",>30%
,"CCc1cccc(C)c1CNc1cc(C(=O)NCCOC)cn2c(C)nnc12 [Example 4, 8-(2-Ethyl-6-methylbenzylamino)-N-(2-methoxyethyl)-3-methyl[1,2,4]triazolo-[4,3-a]pyridine-6-arboxamide]",>30%
